EC50 and IC50 data for 24 molecules are collected here from patent US20170210751A1, “PRMT5 INHIBITORS AND USES THEREOF” (Epizyme, Inc., priority 2014, published 2017).

One may read the EC50 as the concentration needed to bring the measured effect to its halfway point. A higher EC50 goes with weaker potency. A word on the IC50: it is the concentration that inhibits the measured activity by half.

The test system of test [1] is Z-138 cell line. The experiment in a line: Z-138 Proliferation Assay (Cell Titer Glo). It counts as cell-based. To be noted: Homo sapiens, 120 h; Z-138 cells, 5 days incubation, ATP (Cell Titer Glo). Put shortly: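 Z-138 cells in RPMI with 10% FBS exposed 5 days at 37 °C to nine-point 3-fold dilutions, top 20 μM final, 0.2% DMSO, triplicate. ATP-based CellTiter-Glo luminescence; IC50 from 4-parameter fit of normalized curves.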
(In ATP-based viability assays light output follows the ATP content of the culture.)

Test [2] concerns the target T1, PRMT5/MEP50 (Homo sapiens, UniProt O14744).
T1 construct: Flag-PRMT5; made in house; host or cells: Spodoptera frugiperda (SF9) insect cells, baculovirus (pDEST8)
The experiment in a line: PRMT5 Biochemical Assay (PRMT5/MEP50 enzyme assay on peptide substrate, 3H-SAM Flashplate). Particulars: PRMT5/MEP50 4 nM, 3H-SAM 75 nM, peptide 40 nM, 30 min preincubation at 25 degrees Celsius. Put shortly:
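FLAG-PRMT5/His-MEP50 from Sf9 cells (4 nM) preincubated 30 min at 25 °C with compounds, then reacted with 75 nM 3H-SAM and 40 nM biotinylated histone H4 1-15 peptide in Bicine pH 7.6, 1% DMSO. Stopped with 600 uM cold SAM; streptavidin Flashplate capture, scintillation counts; % inhibition fitted to 3- or 4-parameter curve.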

T1 sequence (O14744 with tags, fused parts or gaps): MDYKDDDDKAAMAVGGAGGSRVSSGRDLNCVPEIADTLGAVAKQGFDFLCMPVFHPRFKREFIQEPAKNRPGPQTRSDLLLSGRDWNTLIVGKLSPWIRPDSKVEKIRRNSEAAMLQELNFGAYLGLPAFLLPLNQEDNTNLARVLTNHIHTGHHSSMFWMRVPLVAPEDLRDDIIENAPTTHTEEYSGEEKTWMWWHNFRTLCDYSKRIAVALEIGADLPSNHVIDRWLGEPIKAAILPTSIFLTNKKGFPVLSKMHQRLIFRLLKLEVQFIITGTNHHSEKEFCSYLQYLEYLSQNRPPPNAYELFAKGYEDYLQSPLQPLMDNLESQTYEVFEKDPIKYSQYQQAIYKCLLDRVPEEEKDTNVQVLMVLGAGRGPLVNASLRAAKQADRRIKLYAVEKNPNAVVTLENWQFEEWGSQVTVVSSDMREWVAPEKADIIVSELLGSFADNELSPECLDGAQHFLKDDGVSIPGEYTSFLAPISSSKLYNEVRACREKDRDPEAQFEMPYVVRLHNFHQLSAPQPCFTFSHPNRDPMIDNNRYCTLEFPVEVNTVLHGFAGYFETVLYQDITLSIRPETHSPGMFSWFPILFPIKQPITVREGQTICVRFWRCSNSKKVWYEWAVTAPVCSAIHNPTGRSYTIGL
T1 sequence (Q9BQA1 with tags, fused parts or gaps partner limits assumed): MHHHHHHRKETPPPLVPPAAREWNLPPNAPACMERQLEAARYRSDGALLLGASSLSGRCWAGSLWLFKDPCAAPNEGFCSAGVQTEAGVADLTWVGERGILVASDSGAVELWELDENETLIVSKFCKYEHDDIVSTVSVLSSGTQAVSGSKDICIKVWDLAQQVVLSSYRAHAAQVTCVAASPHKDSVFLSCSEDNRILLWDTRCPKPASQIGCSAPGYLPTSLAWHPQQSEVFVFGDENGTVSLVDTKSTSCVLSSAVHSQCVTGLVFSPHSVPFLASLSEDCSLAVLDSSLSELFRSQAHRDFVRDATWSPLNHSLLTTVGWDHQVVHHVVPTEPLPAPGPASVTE

Molecule `CC(=O)N1CCC(Nc2cc(C(=O)NC[C@H](O)CN3CCc4[nH]nc(-c5ccccc5)c4C3)ncn2)CC1` [Compound 3-12, (S)-6-((1-acetylpiperidin-4-yl)amino)-N-(2-hydroxy-3-(3-phenyl-6,7-dihydro-1H-pyrazolo[4,3-c]pyridin-5(4H)-yl)propyl)pyrimidine-4-carboxamide] displayed an EC50 in test [1] above 5 µM. In test [2], the IC50 is above 10 µM.

For the molecule `Cn1cc2c(n1)CCN(C[C@@H](O)CNC(=O)c1cc(NC3COC3)ncn1)C2` [Compound 3-27], the EC50 in test [1] is above 5 µM. Further, the IC50 in test [2] is above 10 µM.

As to `CC(=O)N1CC(Nc2cc(C(=O)NC[C@H](O)CN3CCc4sc(N)nc4C3)ncn2)C1` [Compound 1-28], in test [1], the EC50 is above 5 µM. Moreover, the IC50 in test [2] was 1 to 10 µM.

On to `CC(=O)N1CC(Nc2cc(C(=O)NC[C@H](O)CN3CCc4sccc4C3)ncn2)C1` [Compound 1-2, (S)-6-((1-acetylazetidin-3-yl)amino)-N-(3-(6,7-dihydrothieno[3,2-c]pyridin-5(4H)-yl)-2-hydroxypropyl)pyrimidine-4-carboxamide], for which the half-maximal effective concentration (EC50) in test [1] lay within 0.101 to 1 µM. The IC50 in test [2] is below 0.1 µM.

Turning to `CC(=O)N1CCC(Nc2cc(C(=O)NC[C@H](O)CN3CCc4ncccc4C3)ncn2)CC1` [Compound 2-14, (S)-6-((1-acetylpiperidin-4-yl)amino)-N-(3-(7,8-dihydro-1,6-naphthyridin-6(5H)-yl)-2-hydroxypropyl)pyrimidine-4-carboxamide], in test [1], the EC50 lay in the range of 1 to 10 µM. Also, in test [2], the IC50 is below 0.1 µM.

Turning to `CC(=O)N1CCC(Nc2cc(C(=O)NC[C@H](O)CN3CCc4ncsc4C3)ncn2)CC1` [Compound 1-18, (S)-6-((1-acetylpiperidin-4-yl)amino)-N-(3-(6,7-dihydrothiazolo[5,4-c]pyridin-5(4H)-yl)-2-hydroxypropyl)pyrimidine-4-carboxamide], the EC50 in test [1] is above 5 µM. For the same molecule, in test [2], the IC50 was in the range of 1 to 10 µM.

As for `Cn1cnc2c1CCN(C[C@@H](O)CNC(=O)c1cc(NC3COC3)ncn1)C2` [Compound 3-28], in test [1], the half-maximal effective concentration (EC50) is above 5 µM. In addition, in test [2], the IC50 was above 10 µM.

In test [1], `O=C(COc1cccc2cccnc12)NCC(O)CN1CCc2cccnc2C1` (stereo not drawn) [Compound 2-5, N-[2-hydroxy-3-(5,6,7,8-tetrahydro-1,7-naphthyridin-7-yl)propyl]-2-(quinolin-8-yloxy)acetamide] registered an EC50 above 5 µM. Moreover, the IC50 in test [2] fell in the range of 1 to 10 µM.

`CC(=O)N1CCC(Nc2cc(C(=O)NC[C@H](O)CN3CCc4ncccc4C3)ccn2)CC1` [Compound 2-20, (S)-2-((1-acetylpiperidin-4-yl)amino)-N-(3-(7,8-dihydro-1,6-naphthyridin-6(5H)-yl)-2-hydroxypropyl)isonicotinamide] returned a concentration for a half-maximal effect (EC50) in test [1] above 5 µM. Moreover, in test [2], the IC50 lay within 0.101 to 1 µM.

As for `CC(=O)N1CCC(Nc2cc(C(=O)NC[C@H](O)CN3CCc4c(cnn4C)C3)ncn2)CC1` [Compound 3-56], the EC50 in test [1] is above 5 µM. In addition, the IC50 in test [2] was above 10 µM.

As for `CC(=O)N1CC(Nc2cc(C(=O)NC[C@H](O)CN3CCc4[nH]ncc4C3)ncn2)C1` [Compound 3-23], in test [1], the EC50 is above 5 µM. For the same molecule, in test [2], the IC50 lay in the range of 1 to 10 µM.

Turning to `CC(=O)N1CC(Nc2cc(C(=O)NC[C@H](O)CN3CCc4[nH]nc(-c5ccccc5)c4C3)ncn2)C1` [Compound 3-11, (S)-6-((1-acetylazetidin-3-yl)amino)-N-(2-hydroxy-3-(3-phenyl-6,7-dihydro-1H-pyrazolo[4,3-c]pyridin-5(4H)-yl)propyl)pyrimidine-4-carboxamide], the concentration for a half-maximal effect (EC50) in test [1] was above 5 µM. For the same molecule, the IC50 in test [2] fell in the range of 1 to 10 µM.

In test [1], `CC(=O)N1CC(Nc2cc(C(=O)NC[C@H](O)CN3CCc4ccncc4C3)ncn2)C1` [Compound 2-22] gave an EC50 above 5 µM. Further, the IC50 in test [2] fell in the range of 1 to 10 µM.

The molecule `CC(=O)N1CCC(Nc2cc(C(=O)NC[C@H](O)CN3CCc4nc(C)sc4C3)ncn2)CC1` [Compound 1-7, (S)-6-((1-acetylpiperidin-4-yl)amino)-N-(2-hydroxy-3-(2-methyl-6,7-dihydrothiazolo[5,4-c]pyridin-5(4H)-yl)propyl)pyrimidine-4-carboxamide] registered an EC50 in test [1] above 5 µM. Also, the IC50 in test [2] is 1 to 10 µM.

On to `CC(=O)N1CCC(Nc2cc(C(=O)NC[C@H](O)CN3CCc4[nH]cnc4C3)ccn2)CC1` [Compound 3-36, (S)-2-((1-acetylpiperidin-4-yl)amino)-N-(3-(6,7-dihydro-1H-imidazo[4,5-c]pyridin-5(4H)-yl)-2-hydroxypropyl)isonicotinamide], for which, in test [1], the EC50 was above 5 µM. Moreover, the IC50 in test [2] is above 10 µM.

Turning to `Cc1csc2c1CN(C[C@@H](O)CNC(=O)c1cc(NC3COC3)ncn1)CC2` [Compound 1-11, (S)—N-(2-hydroxy-3-(3-methyl-6,7-dihydrothieno[3,2-c]pyridin-5(4H)-yl)propyl)-6-(oxetan-3-ylamino)pyrimidine-4-carboxamide], the EC50 in test [1] was in the range of 1 to 10 µM. Also, the IC50 in test [2] fell in the range of 0.101 to 1 µM.

As to `CC(=O)N1CC(Nc2cc(C(=O)NC[C@H](O)CN3CCc4[nH]c(C)nc4C3)ncn2)C1` [Compound 3-47], the 50% effective concentration (EC50) in test [1] was above 5 µM. In test [2], the IC50 was above 10 µM.

Take `O=C(COc1cccc2cccnc12)NCC(O)CN1CCc2sccc2C1` (stereo not drawn) [Compound 1-4, N-(2-hydroxy-3-{4H,5H,6H,7H-thieno[3,2-c]pyridin-5-yl}propyl)-2-(quinolin-8-yloxy)acetamide]: the EC50 in test [1] fell in the range of 1 to 10 µM. The IC50 in test [2] is below 0.1 µM.

In the case of `CC(=O)N1CCC(Nc2cc(C(=O)NC[C@H](O)CN3CCc4oc(C)nc4C3)ccn2)CC1` [Compound 4-4, (S)-2-((1-acetylpiperidin-4-yl)amino)-N-(2-hydroxy-3-(2-methyl-6,7-dihydrooxazolo[4,5-c]pyridin-5(4H)-yl)propyl)isonicotinamide], the EC50 in test [1] was above 5 µM. For the same molecule, the IC50 in test [2] was above 10 µM.

In the case of `CC(=O)N1CCC(Nc2cc(C(=O)NC[C@H](O)CN3CCc4nc(N)sc4C3)ncn2)CC1` [Compound 1-38], the EC50 in test [1] was above 5 µM. In addition, the concentration for half-maximal inhibition (IC50) in test [2] fell in the range of 1 to 10 µM.

Regarding `O=C(NC[C@H](O)CN1CCc2[nH]cnc2C1)c1cc(NC2COC2)ncn1` [Compound 3-38, (S)—N-(3-(6,7-dihydro-1H-imidazo[4,5-c]pyridin-5(4H)-yl)-2-hydroxypropyl)-6-(oxetan-3-ylamino)pyrimidine-4-carboxamide], the EC50 in test [1] is above 5 µM. In addition, the IC50 in test [2] was above 10 µM.

`CC(=O)N1CCC(Nc2cc(C(=O)NC[C@H](O)CN3CCc4ncsc4C3)ccn2)CC1` [Compound 1-19, (S)-2-((1-acetylpiperidin-4-yl)amino)-N-(3-(6,7-dihydrothiazolo[5,4-c]pyridin-5(4H)-yl)-2-hydroxypropyl)isonicotinamide] registered an EC50 in test [1] above 5 µM. For the same molecule, the IC50 in test [2] lay within 1 to 10 µM.

`CC(=O)N1CCC(Nc2cc(C(=O)NC[C@H](O)CN3CCc4sccc4C3)ncn2)CC1` [Compound 1-3, (S)-6-((1-acetylpiperidin-4-yl)amino)-N-(3-(6,7-dihydrothieno[3,2-c]pyridin-5(4H)-yl)-2-hydroxypropyl)pyrimidine-4-carboxamide] displayed a half-maximal effective concentration (EC50) in test [1] of 0.101 to 1 µM. Moreover, the 50% inhibitory concentration (IC50) in test [2] was below 0.1 µM.

Turning to `O=C(NC[C@H](O)CN1CCc2sccc2C1)c1cc(NC2COC2)ncn1` [Compound 1-1, (S)—N-(3-(6,7-dihydrothieno[3,2-c]pyridin-5(4H)-yl)-2-hydroxypropyl)-6-(oxetan-3-ylamino)pyrimidine-4-carboxamide], the EC50 in test [1] lay within 1 to 10 µM. Further, the IC50 in test [2] is below 0.1 µM.
